Consider one molecule from paper PMC9354932, “Heme Interferes With Complement Factor I-Dependent Regulation by Enhancing Alternative Pathway Activation” (Frontiers in Immunology, 2022).

The assay deals with T1, factor I (FI) (Homo sapiens, UniProt P05156).
T1 construct: gene CFI; purified human complement factor I, commercial (CompTech); mature heavy and light chains of one precursor; immobilised on CM5 chip for SPR
T1 sequence (P05156 19-335): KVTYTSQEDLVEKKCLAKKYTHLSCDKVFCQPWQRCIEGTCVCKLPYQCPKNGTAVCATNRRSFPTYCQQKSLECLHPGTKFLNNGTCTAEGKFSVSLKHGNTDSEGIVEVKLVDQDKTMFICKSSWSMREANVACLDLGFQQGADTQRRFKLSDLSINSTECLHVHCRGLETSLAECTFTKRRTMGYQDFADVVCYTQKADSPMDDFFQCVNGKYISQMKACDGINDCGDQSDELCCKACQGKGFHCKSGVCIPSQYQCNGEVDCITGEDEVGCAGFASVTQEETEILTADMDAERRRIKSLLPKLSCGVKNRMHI
T1 sequence (P05156 340-583): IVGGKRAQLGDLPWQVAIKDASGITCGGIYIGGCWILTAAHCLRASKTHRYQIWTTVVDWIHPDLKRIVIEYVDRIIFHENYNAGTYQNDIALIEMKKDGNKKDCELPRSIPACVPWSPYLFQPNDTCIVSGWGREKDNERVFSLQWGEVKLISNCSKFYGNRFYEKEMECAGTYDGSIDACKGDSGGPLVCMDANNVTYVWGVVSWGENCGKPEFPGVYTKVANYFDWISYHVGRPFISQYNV
Put plainly: SPR (Biacore […]), factor I immobilised on CM5 chip. The assay is classed as binding. The conditions noted are these: read-out: KD (apparent).

pKd: −log10 of the molar value.

For `C=CC1=C(C)C2=Cc3c(C=C)c(C)c4[n]3[Fe]([Cl])[n]3c(c(C)c(CCC(=O)O)c3=CC3=NC(=C4)C(C)=C3CCC(=O)O)=CC1=N2` [heme], the pKd was 4.94.

As a reminder, the pKd is the negative decadic logarithm of the Kd, by convention in mol/L.
